Columns and labels:
[1] = target: hT2R3 (Homo sapiens (Human), UniProt Q9NYW6); experiment: hT2R panel inhibition, transient HEK293 G16g44, agonist Chloroquine pH6.5 50 μM; type: cell-based; conditions: HEK293, compound at 25 μM; receptor activated to EC80 with the corresponding agonist; read-out: screening result against bitter receptor 3
In short: (§1)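 Each human T2R transiently transfected into HEK293 cells stably expressing G16g44; functional receptor assays run with the listed bitter agonist at EC80 concentration. Inhibition recorded as reduction of agonist-induced receptor activity in presence of Compound C.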

[2] = target: hT2R4 (Homo sapiens (Human), UniProt Q9NYW5); experiment: hT2R panel inhibition, transient HEK293 G16g44, agonist Chloroquine pH6.5 5 mM; type: cell-based; conditions: HEK293, compound at 25 μM; receptor activated to EC80 with the corresponding agonist; class symbols; read-out: screening result against bitter receptor 4
In short: as §1

[3] = target: hT2R5 (Homo sapiens (Human), UniProt Q9NYW4); experiment: hT2R panel inhibition, transient HEK293 G16g44, agonist Picoline 10 mM; type: cell-based; conditions: HEK293, compound at 25 μM; receptor activated to EC80 with the corresponding agonist; read-out: screening result against bitter receptor 5
In short: as §1

[4] = target: hT2R7 (Homo sapiens (Human), UniProt Q9NYW3); experiment: hT2R panel inhibition, transient HEK293 G16g44, agonist Chloroquine pH6.5 10 mM; type: cell-based; conditions: HEK293, compound at 25 μM; receptor activated to EC80 with the corresponding agonist; read-out: screening result against bitter receptor 7
In short: as §1

[5] = target: hT2R9 (Homo sapiens (Human), UniProt Q9NYW1); experiment: hT2R panel inhibition, transient HEK293 G16g44, agonist Ofloxacin 1 mM; type: cell-based; conditions: HEK293, compound at 25 μM; receptor activated to EC80 with the corresponding agonist; read-out: screening result against bitter receptor 9
Experimental: Specifically, in order to evaluate the inhibitory selectivity of the Compound C compound, this compound was tested against 22 human T2Rs which were deorphaned by Senomyx. These receptors and the bitter ligands that activate these human T2Rs are reported in earlier patent applications which are incorporated by reference herein. These 22 human T2Rs are hT2R1, 3, 4, 5, 7, 8, 9, 10, 13, 14, 16, 44, 51, 54, 55, 61, 63, 64, 65, 67, 71 and 75. The amino acid and nucleic acid sequences of all of these T2Rs may be found in these earlier patent applications. These human T2Rs were each individually transiently transfected into HEK293 cells that stably express the promiscuous G protein G16g44 and functional assays were effected using these receptors as disclosed in these same patent applications. […] The ligands were used at EC80 concentration levels. The list of bitter ligands utilized and the tested ligand concentrations are contained in Table 5 of this example.
Relating to the foregoing, FIG. 5 contains experimental results wherein Compound C was tested with different agonist compounds. The inhibition activity is represented by the reduction of receptor activity in the presence of Compound C. […] These 13 hT2Rs are hT2R3, 7, 10, 14, 16, 44, 51, 55, 61, 63, 64, 65, and 71.

[6] = target: hT2R10 (Homo sapiens (Human), UniProt Q9NYW0); experiment: hT2R panel inhibition, transient HEK293 G16g44, agonist Strychnine 50 μM; type: cell-based; conditions: HEK293, read-out: screening result against bitter receptor 10, compound at 25 μM; receptor activated to EC80 with the corresponding agonist
[7] = target: T1, hT2R14 (Homo sapiens (Human), UniProt Q9NYV8); experiment: hT2R panel inhibition, transient HEK293 G16g44, agonist Aristolochic Acid 2 μM; type: cell-based; conditions: HEK293, compound at 25 μM; receptor activated to EC80 with the corresponding agonist; read-out: screening result against bitter receptor 14
In short: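 Each hT2R was transiently transfected into HEK293 cells stably expressing G16g44 and assayed functionally for inhibition of agonist response. Agonists were applied at EC80: andrographolide at 0.5 mM for hT2R8 and aristolochic acid at 2 μM for hT2R14.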

[8] = target: hT2R16 (Homo sapiens (Human), UniProt Q9NYV7); experiment: hT2R panel inhibition, transient HEK293 G16g44, agonist Salicin 1 mM; type: cell-based; conditions: HEK293, compound at 25 μM; receptor activated to EC80 with the corresponding agonist; read-out: screening result against bitter receptor 16
In short: as §1

[9] = system: hT2R44; experiment: hT2R panel inhibition, transient HEK293 G16g44, agonist Denatonium 0.5 μM; type: cell-based, human; conditions: compound at 25 μM; receptor activated to EC80 with the corresponding agonist
In short: as §1

[10] = system: hT2R55; experiment: hT2R panel inhibition, transient HEK293 G16g44, agonist Cinchonine 150 μM; type: cell-based, human; conditions: compound at 25 μM; receptor activated to EC80 with the corresponding agonist
In short: as §1

[11] = target: hT2R61 (Homo sapiens (Human), UniProt P59537); experiment: hT2R panel inhibition, transient HEK293 G16g44, agonist Aristolochic Acid 25 nM; type: cell-based; conditions: HEK293, compound at 25 μM; receptor activated to EC80 with the corresponding agonist; read-out: screening result against bitter receptor 61
In short: as §1

[12] = target: hT2R64 (Homo sapiens (Human), UniProt P59538); experiment: hT2R panel inhibition, transient HEK293 G16g44, agonist Aristolochic Acid 1 μM; type: cell-based; conditions: HEK293, compound at 25 μM; receptor activated to EC80 with the corresponding agonist; read-out: screening result against bitter receptor 64
In short: as §1

[13] = system: hT2R65; experiment: hT2R panel inhibition, transient HEK293 G16g44, agonist Oleuropein 1 mM; type: cell-based, human; conditions: compound at 25 μM; receptor activated to EC80 with the corresponding agonist
In short: as §1

[14] = target: hT2R71 (Homo sapiens (Human), UniProt P59536); experiment: hT2R panel inhibition, transient HEK293 G16g44, agonist Picric Acid 10 μM; type: cell-based; conditions: HEK293, compound at 25 μM; receptor activated to EC80 with the corresponding agonist; read-out: screening result against bitter receptor 71
In short: as §1

[15] = target: hT2R75 (Homo sapiens (Human), UniProt P59540); experiment: hT2R panel inhibition, transient HEK293 G16g44, agonist Strychnine 1 μM; type: cell-based; conditions: HEK293, read-out: screening result against bitter receptor 75, compound at 25 μM; receptor activated to EC80 with the corresponding agonist
[16] = target: T1, hT2R14; experiment: hT2R14 antagonist high-throughput FLIPR assay, stable cell line with G16g44, agonist aristolochic acid; type: cell-based; conditions: read-out: IC50 on hT2R14 bitter receptor
In short: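 HEK293 cells stably expressing hT2R14 with chimeric G16g44 were stimulated with aristolochic acid (3 μM), giving 70-80% of maximal receptor activity. Test compounds were added together with the agonist, and antagonism was read as fluorescent calcium signal on FLIPR.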

[17] = system: hT2R63; experiment: hT2R panel inhibition, transient HEK293 G16g44, agonist Caffeine 1 mM or Andrographolide 100 μM; type: cell-based, human; conditions: compound at 25 μM; receptor activated to EC80 with the corresponding agonist
In short: as §1

[18] = system: hT2R67; experiment: hT2R panel inhibition, transient HEK293 G16g44, agonist Andrographolide 5 μM; type: cell-based, human; conditions: compound at 25 μM; receptor activated to EC80 with the corresponding agonist
In short: as §1

[19] = target: hT2R51 (Homo sapiens (Human), UniProt P59533); experiment: hT2R panel inhibition, transient HEK293 G16g44, agonist Prop 2.5 μM; type: cell-based; conditions: HEK293, compound at 25 μM; receptor activated to EC80 with the corresponding agonist; read-out: screening result against bitter receptor 51
In short: as §1

[20] = system: hT2R54; experiment: hT2R panel inhibition, transient HEK293 G16g44, agonist Ranitidine 5 mM; type: cell-based, human; conditions: compound at 25 μM; receptor activated to EC80 with the corresponding agonist
In short: as §1

hT2R64, sequence (P59538 whole entry): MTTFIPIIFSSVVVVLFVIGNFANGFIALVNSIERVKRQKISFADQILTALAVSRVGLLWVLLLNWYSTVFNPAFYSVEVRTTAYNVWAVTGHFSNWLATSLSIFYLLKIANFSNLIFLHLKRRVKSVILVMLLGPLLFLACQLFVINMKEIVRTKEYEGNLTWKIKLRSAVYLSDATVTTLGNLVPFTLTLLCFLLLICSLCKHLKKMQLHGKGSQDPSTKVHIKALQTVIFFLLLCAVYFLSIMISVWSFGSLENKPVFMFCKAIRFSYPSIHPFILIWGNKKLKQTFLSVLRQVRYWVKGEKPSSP
hT2R3, sequence (Q9NYW6 whole entry): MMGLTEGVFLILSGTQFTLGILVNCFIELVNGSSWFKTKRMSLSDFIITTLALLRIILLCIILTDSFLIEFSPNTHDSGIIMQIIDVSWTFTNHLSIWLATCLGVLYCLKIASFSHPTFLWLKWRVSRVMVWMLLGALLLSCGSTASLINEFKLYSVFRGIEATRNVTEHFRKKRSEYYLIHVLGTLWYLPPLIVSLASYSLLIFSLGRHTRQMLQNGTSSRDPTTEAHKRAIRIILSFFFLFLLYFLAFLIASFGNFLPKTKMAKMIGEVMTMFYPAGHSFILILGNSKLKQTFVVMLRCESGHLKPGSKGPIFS
hT2R9, sequence (Q9NYW1 whole entry): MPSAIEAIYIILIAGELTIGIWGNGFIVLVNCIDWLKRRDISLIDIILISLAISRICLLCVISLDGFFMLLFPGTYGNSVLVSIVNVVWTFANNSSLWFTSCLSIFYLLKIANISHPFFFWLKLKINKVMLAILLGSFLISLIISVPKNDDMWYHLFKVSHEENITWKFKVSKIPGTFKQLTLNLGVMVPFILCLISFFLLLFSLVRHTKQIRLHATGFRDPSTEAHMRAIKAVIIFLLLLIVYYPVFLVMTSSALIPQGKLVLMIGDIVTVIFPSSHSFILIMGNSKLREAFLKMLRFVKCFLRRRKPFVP
hT2R71, sequence (P59536 whole entry): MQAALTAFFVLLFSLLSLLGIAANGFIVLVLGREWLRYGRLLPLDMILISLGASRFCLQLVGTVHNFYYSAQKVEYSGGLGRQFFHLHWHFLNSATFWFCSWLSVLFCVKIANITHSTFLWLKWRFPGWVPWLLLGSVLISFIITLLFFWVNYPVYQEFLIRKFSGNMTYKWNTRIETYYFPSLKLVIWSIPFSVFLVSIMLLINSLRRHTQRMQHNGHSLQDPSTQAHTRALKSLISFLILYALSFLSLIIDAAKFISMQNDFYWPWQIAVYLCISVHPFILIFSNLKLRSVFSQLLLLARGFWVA
hT2R10, sequence (Q9NYW0 whole entry): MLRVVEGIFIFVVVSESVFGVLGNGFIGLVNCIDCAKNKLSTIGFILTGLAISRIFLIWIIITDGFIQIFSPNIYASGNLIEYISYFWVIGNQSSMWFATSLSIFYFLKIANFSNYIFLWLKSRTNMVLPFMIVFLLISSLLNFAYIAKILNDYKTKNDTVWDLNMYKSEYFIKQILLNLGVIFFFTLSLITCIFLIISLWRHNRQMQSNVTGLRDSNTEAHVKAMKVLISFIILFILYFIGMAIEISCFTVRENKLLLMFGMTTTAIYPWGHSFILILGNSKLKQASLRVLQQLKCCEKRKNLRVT
T1 sequence (Q9NYV8 whole entry): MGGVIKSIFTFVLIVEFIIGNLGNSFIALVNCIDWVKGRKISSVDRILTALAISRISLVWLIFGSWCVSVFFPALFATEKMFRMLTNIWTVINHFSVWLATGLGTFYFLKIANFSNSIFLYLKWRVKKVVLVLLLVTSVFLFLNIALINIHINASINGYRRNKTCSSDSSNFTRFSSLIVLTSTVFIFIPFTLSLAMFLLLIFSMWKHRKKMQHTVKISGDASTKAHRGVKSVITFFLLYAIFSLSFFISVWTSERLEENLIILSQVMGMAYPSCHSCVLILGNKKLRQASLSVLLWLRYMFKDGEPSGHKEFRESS
hT2R16, sequence (Q9NYV7 whole entry): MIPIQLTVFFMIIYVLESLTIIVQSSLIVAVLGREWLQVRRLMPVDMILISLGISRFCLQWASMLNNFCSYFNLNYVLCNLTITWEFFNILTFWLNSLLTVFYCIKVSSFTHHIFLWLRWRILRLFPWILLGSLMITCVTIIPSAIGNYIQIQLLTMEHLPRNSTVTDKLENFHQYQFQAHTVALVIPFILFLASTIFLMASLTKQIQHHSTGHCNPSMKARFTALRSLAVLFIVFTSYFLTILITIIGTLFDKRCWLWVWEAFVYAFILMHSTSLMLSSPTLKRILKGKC
hT2R61, sequence (P59537 whole entry): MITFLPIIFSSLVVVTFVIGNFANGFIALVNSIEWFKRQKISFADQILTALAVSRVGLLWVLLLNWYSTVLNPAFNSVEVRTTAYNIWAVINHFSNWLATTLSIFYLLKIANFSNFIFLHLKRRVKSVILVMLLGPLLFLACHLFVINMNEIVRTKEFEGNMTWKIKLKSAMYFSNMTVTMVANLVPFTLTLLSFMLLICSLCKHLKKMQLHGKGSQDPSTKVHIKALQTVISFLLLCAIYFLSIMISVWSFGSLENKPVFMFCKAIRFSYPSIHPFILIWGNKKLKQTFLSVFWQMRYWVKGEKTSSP
hT2R4, sequence (Q9NYW5 whole entry): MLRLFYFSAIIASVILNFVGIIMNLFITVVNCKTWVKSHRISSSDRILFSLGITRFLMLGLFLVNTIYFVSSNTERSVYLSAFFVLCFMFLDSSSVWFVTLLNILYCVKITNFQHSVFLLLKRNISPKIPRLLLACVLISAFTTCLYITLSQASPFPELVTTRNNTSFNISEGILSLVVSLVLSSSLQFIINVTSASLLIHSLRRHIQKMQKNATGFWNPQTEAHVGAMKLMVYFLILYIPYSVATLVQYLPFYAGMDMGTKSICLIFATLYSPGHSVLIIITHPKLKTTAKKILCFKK
hT2R5, sequence (Q9NYW4 whole entry): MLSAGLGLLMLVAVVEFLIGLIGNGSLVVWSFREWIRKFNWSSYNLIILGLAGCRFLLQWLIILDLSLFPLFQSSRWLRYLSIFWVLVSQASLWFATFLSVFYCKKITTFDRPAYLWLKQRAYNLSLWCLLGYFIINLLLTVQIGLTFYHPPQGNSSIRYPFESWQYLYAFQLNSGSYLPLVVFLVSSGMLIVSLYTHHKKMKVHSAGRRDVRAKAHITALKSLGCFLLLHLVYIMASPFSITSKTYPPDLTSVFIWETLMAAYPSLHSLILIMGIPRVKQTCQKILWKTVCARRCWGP
hT2R7, sequence (Q9NYW3 whole entry): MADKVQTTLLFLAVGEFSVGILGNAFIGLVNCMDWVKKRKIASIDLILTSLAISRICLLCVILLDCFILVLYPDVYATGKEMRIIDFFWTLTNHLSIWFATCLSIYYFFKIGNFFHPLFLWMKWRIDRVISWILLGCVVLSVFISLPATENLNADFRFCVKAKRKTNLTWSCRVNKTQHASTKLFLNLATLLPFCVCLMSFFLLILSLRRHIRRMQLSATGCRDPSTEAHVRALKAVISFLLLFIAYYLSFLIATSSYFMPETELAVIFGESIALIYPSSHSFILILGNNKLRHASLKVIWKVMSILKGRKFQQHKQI
hT2R75, sequence (P59540 whole entry): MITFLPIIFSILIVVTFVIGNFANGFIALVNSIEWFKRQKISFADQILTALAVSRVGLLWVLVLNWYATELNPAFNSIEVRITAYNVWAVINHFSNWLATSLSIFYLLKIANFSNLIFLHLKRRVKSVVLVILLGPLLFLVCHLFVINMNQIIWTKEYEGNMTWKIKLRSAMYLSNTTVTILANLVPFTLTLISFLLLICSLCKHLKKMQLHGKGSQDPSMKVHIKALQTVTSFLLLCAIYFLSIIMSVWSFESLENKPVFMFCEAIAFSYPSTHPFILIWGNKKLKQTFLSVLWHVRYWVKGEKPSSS
hT2R51, sequence (P59533 whole entry): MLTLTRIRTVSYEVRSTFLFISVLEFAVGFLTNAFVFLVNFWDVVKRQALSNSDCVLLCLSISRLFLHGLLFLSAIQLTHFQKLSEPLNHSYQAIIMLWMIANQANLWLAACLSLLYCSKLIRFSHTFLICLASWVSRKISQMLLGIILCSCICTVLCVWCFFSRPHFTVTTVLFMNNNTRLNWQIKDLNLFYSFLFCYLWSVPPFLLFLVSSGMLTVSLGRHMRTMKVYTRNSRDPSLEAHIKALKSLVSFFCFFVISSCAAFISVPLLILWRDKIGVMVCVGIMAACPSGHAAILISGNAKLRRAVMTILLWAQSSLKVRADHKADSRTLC

Row | Structure (SMILES) | inhibition at 25 µM [1] [%] | inhibition at 25 µM [2] [%] | inhibition at 25 µM [3] [%] | inhibition at 25 µM [4] [%] | inhibition at 25 µM [5] [%] | inhibition at 25 µM [6] [%] | inhibition at 25 µM [7] [%] | inhibition at 25 µM [8] [%] | screening result against bitter receptor 44 [9] | screening result against bitter receptor 55 [10] | inhibition at 25 µM [11] [%] | inhibition at 25 µM [12] [%] | screening result against bitter receptor 65 [13] | inhibition at 25 µM [14] [%] | inhibition at 25 µM [15] [%] | IC50 [16] [nM] | screening result against bitter receptor 63 [17] | screening result against bitter receptor 67 [18] | inhibition at 25 µM [19] [%] | screening result against bitter receptor 54 [20]
1 | COc1ccc(CN(Cc2ccccc2)S(=O)(=O)Cc2ccc(C(=O)O)cc2)cc1 [Example 5-16, 4-((N-benzyl-N-(4-methoxybenzyl)sulfamoyl)methyl)benzoic acid] | 40 to 60 | 20 to 40 | 20 to 40 | 20 to 40 | 20 to 40 | 20 to 40 | 20 to 40 | 20 to 40 | +++ (60% to 80% inhibition = +++) | ++++ (80% or greater inhibition = ++++) | 60 to 80 | > 80 | + (20% to 40% inhibition = +) | 40 to 60 | 20 to 40 |  |  |  |  | 
2 | Cc1ccc(S(=O)(=O)N(Cc2ccccc2)CC2CCC(C(=O)O)CC2)cc1 (stereo not shown) [Example 5-11, 4-((N-benzyl-4-methylphenylsulfonamido)methyl)cyclohexane-carboxylic acid] | 60 to 80 | 60 to 80 | 20 to 40 | 40 to 60 | 20 to 40 | 40 to 60 | > 80 | 40 to 60 | +++ (60% to 80% inhibition = +++) | ++++ (80% or greater inhibition = ++++) | > 80 | 40 to 60 | + (20% to 40% inhibition = +) | 60 to 80 | 40 to 60 | 14 | +++ (60% to 80% inhibition = +++) | + (20% to 40% inhibition = +) |  | 
3 | CCOc1ccc(CN(Cc2ccco2)S(=O)(=O)c2ccc(C(=O)O)cc2)cc1 [Example 5-3, 4-(N-(4-ethoxybenzyl)-N-(furan-2-ylmethyl)sulfamoyl)benzoic acid] | 40 to 60 | 60 to 80 |  |  | 20 to 40 | 40 to 60 | > 80 | 20 to 40 | ++ (40% to 60% inhibition = ++) | ++++ (80% or greater inhibition = ++++) | 40 to 60 | > 80 | + (20% to 40% inhibition = +) | 20 to 40 |  | 3000 | +++ (60% to 80% inhibition = +++) |  | 20 to 40 | ++ (40% to 60% inhibition = ++)
